The values that follow come from patent publication US20230293530A1, “AGENTS FOR SENSITIZING SOLID TUMORS TO TREATMENT” (Yeda Research and Development Co. Ltd., priority 2020, published 2023).

The subject of experiment [1] is 4T1 breast cancer cells. Nature of the experiment: Nucleotide levels by LC-MS in 4T1 cells with or without mizoribine (or L-Name). Format: cell-based, murine. The conditions noted are these: 300 µM mizoribine, 24 h. On the procedure:
B) The purine/pyrimidine ratio is increased upon glucose deprivation in murine breast cancer cells. 4T1 cells were grown in the absence of glucose for 24h (baseline) and 48h and quantified by liquid chromatography-mass spectrometry (LC-MS). Nucleotide levels were measured in µg/ml and corrected for protein concentration. Purine/pyrimidine ratio was calculated by dividing (AMP+GMP) by (UMP+CMP) relative concentrations. C) ASS1 inhibition decreases the purine/pyrimidine ration under glucose deprivation. 4T1 cells were grown in the presence or absence of glucose for 48 h and analysed as in 1B. […] Cells were grown and treated as in 5B. […] 4T1 cells were grown either with or without 300 µM mizoribine for 24 h. Nucleotide levels were measured by LC-MS. […] Each experiment was conducted with biological and technical replicates and repeated at least three times. G) A549 cells were grown for 48 hr in control medium or supplemented with 1.2 µM Methotrexate (Holland-Moran). Nucleotide levels were measured as described below by LC-MS. Purine/pyrimidine ratio was calculated by dividing (AMP+GMP+ATP+GTP) concentration by (UMP+CMP+TMP+UTP+CTP+TTP) concentration before and after methotrexate. All error bars represent SER. *P<0.05, **P<0.01. Each experiment was conducted with biological and technical replicates and repeated at least three times.
(§1) A) Purine/pyrimidine ratio is increased upon nutrient deprivation in […] colon cancer cells. MC38 cells were grown in either regular medium or in medium without glucose for 24 h. Nucleotide levels were measured by LC-MS. Purine/pyrimidine ratio was calculated by dividing (AMP+GMP) AUC by (UMP+CMP) AUC. B) 4T1 cells with and without shASS1 were grown in glucose free medium either supplemented or not with 10 mM L-Name for 48 hrs. Nucleotide levels were measured by LC-MS. Purine/pyrimidine ratio was calculated by dividing the sum levels of (AMP+GMP) by the sum levels of (UMP+CMP+TMP). […] MC38 cells were grown either with or without 300 µM mizoribine for 24 h. Nucleotide levels were measured by LC-MS. […] 4T1 (left panel) and MC38 cells (right panel) were grown for 24 h with or without 300 µM mizoribine. Cell viability was measured by crystal violet staining. Each experiment was conducted with biological and technical replicates and repeated at least three times. All error bars represent SER. * P<0.05, ** denotes P<0.01, ***P<0.001.
LC-MS analysis: The LC-MS/MS instrument consisting of an Acquity I-class UPLC system (Waters) and Xevo TQ-S triple quadrupole mass spectrometer (Waters), equipped with an electrospray ion source, and operated in positive ion mode was used for analysis of nucleoside monophosphates. MassLynx and TargetLynx software (version 4.1, Waters) were applied for the acquisition and analysis of data. Chromatographic separation was done on a 100 mm × 2.1 mm internal diameter, 1.8-µm UPLC HSS T3 column equipped with 50 mm × 2.1 mm internal diameter, 1.8-µm UPLC HSS T3 pre-column (both Waters Acquity) with mobile phases A (10 mM ammonium acetate and 5 mM ammonium hydrocarbonate buffer, pH 7.65 adjusted with 10% acetic acid) and B (acetonitrile) at a flow rate of 0.3 mL min-1 and column temperature 25° C. A gradient was used as follows: for 0-3 min the column was held at 0.2% B, then 3-3.5 min a linear increase to 100% B, 3.5-4.0 min held at 100% B, 4.0-4.5 min back to 0.2% B and equilibration at 0.2% B for 2.5 min. […] Nucleotide concentration was calculated using a standard curve of the relevant nucleotide concentration in each sample. […]

The next experiment concerns MC38 cells. Kind of experiment: Cell viability by crystal violet staining, MC38. Format: cell-based, mouse. The following applies: 300 µM mizoribine, 24 h. The procedure:
as §1

For experiment [2], the system named is 4T1 breast cancer cells. Kind of experiment: Syngeneic mouse breast cancer model, 4T1 cells pre-treated in vitro with mizoribine. Format: in vivo, BALB/c female mice. From the text:
C) ASS1 mRNA expression levels and NDNO scores are associated with non-response to anti-PD1 therapy in non-small cell lung cancer (NSCLC) (7 responders and 14 nonresponders). D) Proteomic-based NDNO scores associate with lower hydrophobicity of peptide repertoire (Wilcoxon ranksum P<0.05) in a (CPTAC3) lung adenocarcinoma cohort. NDNO scores were used to determine the top tertile (red; n=36) and bottom tertile (blue; n=36); Proteomic NDNO scores denote the ratio of NNDO scores of the tumor vs the matched normal sample (Methods). Hydrophobicity scores were determined by R library Peptides using the metric from Janin et al^2, where the hydrophobicity of each sample’s peptide repertoire denotes the mean hydrophobicity of all its peptides (Methods). E) 4T1 breast cancer cells were treated with 300 µM mizoribine for 24 hours and analysed by western for LMP-7 immunoproteasome (Left panel). Quantification of the western is shown on the right panel. […] Tumor size was calliper-measured on the designated days (upper panel) and at sacrifice on day 14 (lower panel, p = 0.0476 using student’s t-test). […] Human IFNγ was measured using ELISA in wells containing cultured CD8+T-cells and PDX explants from two patients (Pat#1, LEP 19 and Pat#2, LEP 20) with metastatic NSCLC on responsive to anti-PD1. […]

Where [3] appears, read: corrected for protein concentration.

For `NC(=O)c1ncn([C@@H]2O[C@H](CO)[C@@H](O)[C@H]2O)c1O` [Mizoribine, mizoribine], the “purine/pyrimidine ratio (AMP+GMP)/(UMP+CMP)” value with 4T1 breast cancer cells [1] is listed as “decreased purine/pyrimidine ratio”. In the experiment on 4T1 breast cancer cells [1] (setting [3]), the “AMP level, Mizoribine treatment” value worked out at 483.2 µg/ml/ pt; the “CMP level, Mizoribine treatment” value was determined as 7.3 µg/ml/ pt; the “GMP level, Mizoribine treatment” value was found to be 28.46 µg/ml/ pt; the “UMP level, Mizoribine treatment” value was found to be 38.39 µg/ml/ pt. The “cancer cell proliferation (cell viability, crystal violet)” value with MC38 cells was “restricts ASS1-overexpressing cancer cell proliferation”. Further, the tumor growth entry in the experiment with 4T1 breast cancer cells [2] (4T1 cells treated with mizoribine in vitro before injection into mammary pads, mizoribine alone) is given as “restricted tumor growth”. Further, in the experiment on 4T1 breast cancer cells [2] (4T1 cells treated with mizoribine in vitro before injection, anti-PD1 intraperitoneal, mice unresponsive to anti-PD1), the “tumor growth response in combination with anti-PD1” value is given as “more significant response”.
